From patent US7585859B2, “PDE4B inhibitors and uses therefor” (Plexxikon, Inc., priority 2004, dated 2009)
pIC50: −log10 of the molar value. Where two headings read alike, the source gives them in different places.

Columns and labels:
PDE4D = target: T1, PDE4D (Homo sapiens, UniProt Q08499); experiment: PDE4 IC50 determination by Scintillation Proximity Assay, PDE4D; type: biochemical
T1 construct: PDE4D: The catalytic domain of human PDE4B from S3 16-V692; His6 (N); thrombin cleavage site (N); made in house; host or cells: E. coli
T1 sequence (Q08499 380-756): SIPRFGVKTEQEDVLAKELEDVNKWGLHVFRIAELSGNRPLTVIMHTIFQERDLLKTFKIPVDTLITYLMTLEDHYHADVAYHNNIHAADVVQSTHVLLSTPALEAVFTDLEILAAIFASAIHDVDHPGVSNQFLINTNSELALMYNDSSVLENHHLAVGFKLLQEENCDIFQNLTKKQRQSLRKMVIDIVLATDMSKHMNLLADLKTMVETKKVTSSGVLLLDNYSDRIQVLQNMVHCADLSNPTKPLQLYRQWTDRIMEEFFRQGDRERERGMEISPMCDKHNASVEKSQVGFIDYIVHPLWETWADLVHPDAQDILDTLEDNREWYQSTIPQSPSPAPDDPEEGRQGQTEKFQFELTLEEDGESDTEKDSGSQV
In short: (§1)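 Scintillation counts reflected [^3H]AMP captured on yttrium silicate SPA beads after enzyme hydrolysed [^3H]cAMP for 30 min at 30°. PDE4B was used at 80 ng/ml and PDE4D at 4 ng/ml. IC50 values came from non-linear regression.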

[1] = target: T2, PDE4B: The catalytic domain of human PDE4B from S152-S528 (Homo sapiens, UniProt Q07343); experiment: PDE4 IC50 determination by Scintillation Proximity Assay, PDE4B; type: biochemical
T2 construct: His6 (N); thrombin cleavage site (N); made in house; host or cells: E. coli
T2 sequence (Q07343 with tags, fused parts or gaps): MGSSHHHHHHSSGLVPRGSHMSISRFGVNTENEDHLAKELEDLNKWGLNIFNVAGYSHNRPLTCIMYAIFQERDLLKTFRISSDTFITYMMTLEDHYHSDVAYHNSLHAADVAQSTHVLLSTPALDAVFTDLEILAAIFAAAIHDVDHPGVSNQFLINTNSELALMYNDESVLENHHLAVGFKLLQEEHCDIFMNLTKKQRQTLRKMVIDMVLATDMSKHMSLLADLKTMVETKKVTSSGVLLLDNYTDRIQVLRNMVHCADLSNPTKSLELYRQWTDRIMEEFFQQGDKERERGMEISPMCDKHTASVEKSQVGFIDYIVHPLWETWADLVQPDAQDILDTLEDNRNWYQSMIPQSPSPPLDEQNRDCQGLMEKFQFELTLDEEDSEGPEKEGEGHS
In short: as §1

[2] = Table 1B, Formula I compounds, read-out: IC50 PDE4D
[3] = Table 1B, Formula I compounds, read-out: IC50 PDE4B
[4] = second part of Table 2B (2-23 to 2-103), column 5, column is PDE4D in first part, read-out: IC 50 vs. indicated assay h TNFα
[5] = second part of Table 2B (2-23 to 2-103), column 3, column is PDE4B in first part, read-out: IC 50 vs. indicated assay h TNFα
[6] = Table 3A, Formula III compounds, read-out: IC50 PDE4D
[7] = Table 3A, Formula III compounds, read-out: IC50 PDE4B

pIC50 (PDE4D; [2])	pIC50 [1, 3]	SMILES	other results
< 5.00	< 5.00	N#Cc1c(NCCN2CCCCC2)sc(C(=O)c2csc3ccccc23)c1N [Compound 1-48, 4-Amino-5-(benzo[b]thiophene-3-carbonyl)-2-(2-piperidin-1-yl-ethylamino)-thiophene-3-carbonitrile]	
< 5.00	> 5.00	COC(=O)C(CC(C)C)Nc1sc(C(=O)c2ccccn2)c(N)c1C#N (stereo not drawn) [Compound 1-64, 2-[4-Amino-3-cyano-5-(pyridine-2-carbonyl)-thiophen-2-ylamino]-4-methyl-pentanoic acid methyl ester]	
		Nc1nc(Nc2c(Cl)cccc2Cl)sc1C(=O)C1CC1 [Compound 2-96, [4-Amino-2-(2,6-dichloro-phenylamino)-thiazol-5-yl]-cyclopropyl-methanone]	pIC50 (PDE4D; [4]): > 5.00; pIC50 [1, 5]: > 5.00
		COc1cc(NS(=O)(=O)c2ccc(C)cc2)c2ncccc2c1 [Compound 3-48, N-(6-Methoxy-quinolin-8-yl)-4-methyl-benzenesulfonamide]	pIC50 (PDE4D; [6]): < 5.00; pIC50 [1, 7]: < 5.00
		Nc1nc(Nc2ccccc2)sc1C(=O)C1CCCCC1 [Compound 2-90, (4-Amino-2-phenylamino-thiazol-5-yl)-cyclohexyl-methanone]	pIC50 (PDE4D; [4]): > 5.00; pIC50 [1, 5]: > 5.00
< 5.00	< 5.00	N#Cc1c(NCCN2CCCCC2)sc(C(=O)c2ccccn2)c1N [Compound 1-63, 4-Amino-2-(2-piperidin-1-yl-ethylamino)-5-(pyridine-2-carbonyl)-thiophene-3-carbonitrile]	
> 5.00	> 5.00	N#Cc1c(NC2CCCC2)sc(C(=O)c2csc(-c3ccccc3)n2)c1N [Compound 1-235, 4-Amino-2-cyclopentylamino-5-(2-phenyl-thiazole-4-carbonyl)-thiophene-3-carbonitrile]	
		Nc1nc(Nc2ccc(Cl)cc2)sc1C(=O)C1CCCCC1 [Compound 2-91, [4-Amino-2-(4-chloro-phenylamino)-thiazol-5-yl]-cyclohexyl-methanone]	pIC50 (PDE4D; [4]): < 5.00; pIC50 [1, 5]: > 5.00
> 5.00	> 5.00	N#Cc1c(Nc2ccc(Oc3ccccc3)cc2)sc(C(=O)c2ccccc2)c1N [Compound 1-185, 4-Amino-5-benzoyl-2-(4-phenoxy-phenylamino)-thiophene-3-carbonitrile]	
		COC(=O)c1ccc(S(=O)(=O)Nc2cccc3cccnc23)o1 [Compound 3-44, 5-(Quinolin-8-ylsulfamoyl)-furan-2-carboxylic acid methyl ester]	pIC50 (PDE4D; [6]): < 5.00; pIC50 [1, 7]: < 5.00
		N#Cc1cccc(Nc2nc(N)c(C(=O)c3ccc(Oc4ccccc4)cc3)s2)c1 [Compound 2-46, 3-[4-Amino-5-(4-phenoxy-benzoyl)-thiazol-2-ylamino]-benzonitrile]	pIC50 (PDE4D; [4]): > 5.00; pIC50 [1, 5]: > 5.00
		Cc1ccc2cccnc2c1NS(=O)(=O)c1ccc(-c2cc(C(F)(F)F)on2)s1 [Compound 3-26, 5-(5-Trifluoromethyl-isoxazol-3-yl)-thiophene-2-sulfonic acid (7-methyl-quinolin-8-yl)-amide]	pIC50 (PDE4D; [6]): < 5.00; pIC50 [1, 7]: < 5.00
		COc1ccc(S(=O)(=O)Nc2cc(OC)cc3cccnc23)cc1 [Compound 3-53, 4-Methoxy-N-(6-methoxy-quinolin-8-yl)-benzenesulfonamide]	pIC50 (PDE4D; [6]): < 5.00; pIC50 [1, 7]: < 5.00
> 5.00	> 5.00	N#Cc1c(Nc2ccc(Cl)c(C(F)(F)F)c2)sc(C(=O)c2ccccc2)c1N [Compound 1-168, 4-Amino-5-benzoyl-2-(4-chloro-3-trifluoromethyl-phenylamino)-thiophene-3-carbonitrile]	
< 5.00	> 5.00	COc1ccc(C(=O)c2sc(NC3CCOC3=O)c(C#N)c2N)c(OC)c1 (stereo not drawn) [Compound 1-44, 4-Amino-5-(2,4-dimethoxy-benzoyl)-2-(2-oxo-tetrahydro-furan-3-ylamino)-thiophene-3-carbonitrile]	
< 5.00	> 5.00	N#Cc1c(Nc2ccc(Oc3ccccc3)cc2)sc(C(=O)c2cccc(Cl)c2)c1N [Compound 1-163, 4-Amino-5-(3-chloro-benzoyl)-2-(4-phenoxy-phenylamino)-thiophene-3-carbonitrile]	
< 5.00	> 5.00	COC(=O)C(CC(C)C)Nc1sc(C(=O)c2cccc(Cl)c2)c(N)c1C#N (stereo not drawn) [Compound 1-118, 2-[4-Amino-5-(3-chloro-benzoyl)-3-cyano-thiophen-2-ylamino]-4-methyl-pentanoic acid methyl ester]	
		O=S(=O)(Nc1cccc2cccnc12)c1ccc(Br)s1 [Compound 3-4, 5-Bromo-thiophene-2-sulfonic acid quinolin-8-ylamide]	pIC50 (PDE4D; [6]): < 5.00; pIC50 [1, 7]: < 5.00

pIC50 (PDE4D; [2])	pIC50 [1, 3]	SMILES	other results
< 5.00	< 5.00	CCOC(=O)c1c(Nc2c(C)cccc2C)sc(C(=O)c2ccc(Br)cc2)c1N [Compound 1-24, 4-Amino-5-(4-bromo-benzoyl)-2-(2,6-dimethyl-phenylamino)-thiophene-3-carboxylic acid ethyl ester]	
> 5.00	> 5.00	CCc1ccccc1Nc1sc(C(=O)c2ccc(OC)cc2OC)c(N)c1C#N [Compound 1-104, 4-Amino-5-(2,4-dimethoxy-benzoyl)-2-(2-ethyl-phenylamino)-thiophene-3-carbonitrile]	
< 5.00	> 5.00	Cc1ccccc1C(=O)Nc1sc(C(=O)c2ccccn2)c(N)c1C#N [Compound 1-160, N-[4-Amino-3-cyano-5-(pyridine-2-carbonyl)-thiophen-2-yl]-2-methyl-benzamide]	
> 5.00	> 5.00	COc1ccc(OC)c(C(=O)c2sc(Nc3ccc4c(c3)CCC4)c(C#N)c2N)c1 [Compound 1-94, 4-Amino-5-(2,5-dimethoxy-benzoyl)-2-(indan-5-ylamino)-thiophene-3-carbonitrile]	
		COc1ccc(Nc2nc(N)c(C(=O)c3cccc(OC)c3)s2)cc1 [Compound 2-63, [4-Amino-2-(4-methoxy-phenylamino)-thiazol-5-yl]-(3-methoxy-phenyl)-methanone]	pIC50 (PDE4D; [4]): > 5.00; pIC50 [1, 5]: > 5.00
> 5.00	> 5.00	CC(C)Nc1sc(C(=O)c2ccc(Oc3ccccc3)cc2)c(N)c1C#N [Compound 1-230, 4-Amino-2-isopropylamino-5-(4-phenoxy-benzoyl)-thiophene-3-carbonitrile]	
		COc1cc(NS(=O)(=O)c2ccc(-c3ccnc(SC)n3)s2)c2ncccc2c1 [Compound 3-14, 5-(2-Methylsulfanyl-pyrimidin-4-yl)-thiophene-2-sulfonic acid (6-methoxy-quinolin-8-yl)-amide]	pIC50 (PDE4D; [6]): > 5.00; pIC50 [1, 7]: > 5.00
		Nc1nc(Nc2ccccc2F)sc1C(=O)c1cccc(C(F)(F)F)c1 [Compound 2-54, [4-Amino-2-(2-fluoro-phenylamino)-thiazol-5-yl]-(3-trifluoromethyl-phenyl)-methanone]	pIC50 (PDE4D; [4]): > 5.00; pIC50 [1, 5]: > 5.00
> 5.00	> 5.00	COc1ccc(C(=O)c2sc(NC3CC3)c(C#N)c2N)cc1 [Compound 1-178, 4-Amino-2-cyclopropylamino-5-(4-methoxy-benzoyl)-thiophene-3-carbonitrile]	
		Cc1ccc(S(=O)(=O)Nc2cccc3cccnc23)cc1 [Compound 3-46, 4-Methyl-N-quinolin-8-yl-benzenesulfonamide]	pIC50 (PDE4D; [6]): < 5.00; pIC50 [1, 7]: < 5.00
< 5.00	> 5.00	N#Cc1c(NC2CCCC2)sc(C(=O)c2csc3ccccc23)c1N [Compound 1-124, 4-Amino-5-(benzo[b]thiophene-3-carbonyl)-2-cyclopentylamino-thiophene-3-carbonitrile]	
		Nc1nc(NC2CCCC2)sc1C(=O)c1ccsc1 [Compound 2-102, (4-Amino-2-cyclopentylamino-thiazol-5-yl)-thiophen-3-yl-methanone]	pIC50 (PDE4D; [4]): > 5.00; pIC50 [1, 5]: > 5.00
< 5.00	< 5.00	N#Cc1c(Nc2ccc(Oc3ccccc3)cc2)sc(C(N)=O)c1N [Compound 1-197, 3-Amino-4-cyano-5-(4-phenoxy-phenylamino)-thiophene-2-carboxylic acid amide]	
		COc1ccc(OC)c(S(=O)(=O)Nc2cc(OC)cc3cccnc23)c1 [Compound 3-51, 2,5-Dimethoxy-N-(6-methoxy-quinolin-8-yl)-benzenesulfonamide]	pIC50 (PDE4D; [6]): < 5.00; pIC50 [1, 7]: < 5.00
> 5.00	> 5.00	N#Cc1c(NC2CCCC2)sc(C(=O)C2CC2)c1N [Compound 1-179, 4-Amino-2-cyclopentylamino-5-cyclopropanecarbonyl-thiophene-3-carbonitrile]	
		COc1ccc(C(=O)c2sc(NC3CCCC3)nc2N)cc1 [Compound 2-78, (4-Amino-2-cyclopentylamino-thiazol-5-yl)-(4-methoxy-phenyl)-methanone]	pIC50 (PDE4D): > 5.00; pIC50 [1]: > 5.00
> 5.00	> 5.00	COc1cc(C#N)c(Nc2sc(C(=O)c3ccc(Cl)cc3)c(N)c2C#N)cc1OC [Compound 1-19, 4-Amino-5-(4-chloro-benzoyl)-2-(2-cyano-4,5-dimethoxy-phenylamino)-thiophene-3-carbonitrile]	
< 5.00	< 5.00	COC(=O)C(CC(C)C)Nc1sc(C(=O)c2ccc(C)cc2C)c(N)c1C#N (stereo not drawn) [Compound 1-87, 2-[4-Amino-3-cyano-5-(2,4-dimethyl-benzoyl)-thiophen-2-ylamino]-4-methyl-pentanoic acid methyl ester]	
